System: TpPIN1 (TP01_0114) transcripts
Assay: Quantitative PCR of TpPIN transcripts in T.parva-infected cells
Type: cell-based
Experimental: Total cellular RNAs were extracted using an RNeasy Plus Mini Kit (Qiagen, Hilden, Germany) and parasite RNAs were extracted using the classical Trizol Protocol. cDNA synthesis was performed with the Reverse Transcriptase Superscript III (Invitrogen, CA, USA).
Quantitative PCR amplification was performed in the ABI 7500 machine (Applied Biosystems, CA, USA) using the Sybr Green reagent (Applied Biosystems, CA, USA) using the primers listed in Table 5 below. The detection of a single product was verified by dissociation curve analysis. Relative quantities of mRNA were analyzed using the delta Ct method. The βactin qPCR was used for normalization. Table 5: qPCR primers

## CC(C)(C)C1CCC(CC2=C(O)C(=O)c3ccccc3C2=O)CC1 (stereo not shown) [Buparvaquone, 2-((4-tert-butylcyclohexyl)methyl)-3-hydroxy-1,4-naphthoquinone]
  TpPIN1 transcripts: reduced

Source: EP2845588A1, “PIN1 inhibitors for use in the prevention and/or treatment of theileriosis, and related applications” (Centre National de la Recherche Scientifique (CNRS), priority 2013, dated 2015)
